Measurements reported in ChEMBL document CHEMBL3638962, “Heteroarylcarboxylic acid ester derivative” (2013).

Molecular target: Enteropeptidase (Homo sapiens, UniProt P98073)
Assay: Inhibition Assay: Inhibition assay using human enteropeptidase.

Enteropeptidase, sequence (P98073 2-784 limits assumed): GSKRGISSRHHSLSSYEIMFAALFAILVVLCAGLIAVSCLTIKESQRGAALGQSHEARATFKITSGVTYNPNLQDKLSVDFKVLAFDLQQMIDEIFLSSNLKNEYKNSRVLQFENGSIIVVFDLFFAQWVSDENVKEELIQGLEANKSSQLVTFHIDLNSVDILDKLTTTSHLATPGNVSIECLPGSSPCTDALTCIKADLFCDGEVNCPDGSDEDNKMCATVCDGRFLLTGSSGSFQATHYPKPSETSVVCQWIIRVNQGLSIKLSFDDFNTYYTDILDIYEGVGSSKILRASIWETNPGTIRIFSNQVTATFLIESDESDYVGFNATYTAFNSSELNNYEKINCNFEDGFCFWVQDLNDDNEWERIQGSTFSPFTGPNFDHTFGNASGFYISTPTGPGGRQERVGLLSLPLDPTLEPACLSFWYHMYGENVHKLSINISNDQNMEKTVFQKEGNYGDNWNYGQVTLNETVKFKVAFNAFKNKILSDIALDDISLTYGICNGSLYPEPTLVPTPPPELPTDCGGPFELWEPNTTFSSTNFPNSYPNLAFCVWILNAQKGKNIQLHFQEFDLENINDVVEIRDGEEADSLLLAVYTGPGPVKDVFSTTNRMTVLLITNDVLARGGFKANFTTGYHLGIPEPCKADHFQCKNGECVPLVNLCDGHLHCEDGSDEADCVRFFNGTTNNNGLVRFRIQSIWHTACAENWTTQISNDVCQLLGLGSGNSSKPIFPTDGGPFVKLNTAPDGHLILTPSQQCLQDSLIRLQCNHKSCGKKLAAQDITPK
Enteropeptidase, sequence (P98073 785-1019 limits assumed): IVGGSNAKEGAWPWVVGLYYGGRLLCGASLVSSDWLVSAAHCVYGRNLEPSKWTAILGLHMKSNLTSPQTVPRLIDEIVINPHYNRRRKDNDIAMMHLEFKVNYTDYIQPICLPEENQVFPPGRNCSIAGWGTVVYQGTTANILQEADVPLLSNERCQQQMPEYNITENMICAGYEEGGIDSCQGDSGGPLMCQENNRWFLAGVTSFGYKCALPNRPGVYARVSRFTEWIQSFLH

N=C(N)c1ccc(OC(=O)c2ccc(CCC(=O)N(CCC(=O)O)CC(=O)O)o2)cc1 was tested, and the Ki was 0.6 nM.
In the case of CC(Cc1ccc(C(=O)Oc2ccc(C(=N)N)cc2)o1)C(=O)O[C@H](CC(=O)O)C(=O)O (stereo partly drawn), the Ki is reported as 0.68 nM.
CC(Cc1ncc(C(=O)Oc2ccc(C(=N)N)cc2F)s1)C(=O)N[C@@H](CC(=O)O)C(=O)O (stereo partly drawn) gave a Ki of 3.7 nM.
